For test [1], the target named is T1, PhnA (phosphonoacetate hydrolase; PhnA-N-His) (Sinorhizobium meliloti, UniProt Q92UV8).
T1 sequence (Q92UV8 1-424): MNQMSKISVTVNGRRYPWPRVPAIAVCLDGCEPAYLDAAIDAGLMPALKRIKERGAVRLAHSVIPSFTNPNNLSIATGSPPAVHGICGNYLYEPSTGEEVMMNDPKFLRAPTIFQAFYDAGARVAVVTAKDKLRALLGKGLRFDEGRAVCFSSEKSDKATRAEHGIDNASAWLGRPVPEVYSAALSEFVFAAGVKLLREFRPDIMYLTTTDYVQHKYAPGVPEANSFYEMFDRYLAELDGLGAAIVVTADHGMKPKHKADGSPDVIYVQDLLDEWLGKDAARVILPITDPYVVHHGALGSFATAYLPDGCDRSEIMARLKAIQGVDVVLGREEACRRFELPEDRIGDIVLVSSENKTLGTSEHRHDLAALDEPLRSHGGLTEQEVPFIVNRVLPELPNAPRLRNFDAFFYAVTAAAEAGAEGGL
As to the kind of experiment: co-crystal structure, […] Å. The format is binding. Particulars: covalent; transition state mimic on Thr68, di-zinc active site.

Test [2] deals with T2, PhnA (phosphonoacetate hydrolase; PhnA-N-His) (Sinorhizobium meliloti, UniProt Q92UV8, T68A).
T2 sequence (Q92UV8 1-424 T68A): T1 sequence (Q92UV8 1-424) with T68A
The test can be described thus: co-crystal structure, […] Å. The class given is binding. Particulars: with 2 mM ZnCl2; active site, phosphonate at M2, carboxylate at M1.

Test [3] deals with T1, PhnA (phosphonoacetate hydrolase; PhnA-N-His). As to conditions: formed by turnover of phosphonoacetate; bidentate to metal M1.

We go through 3 molecules from publication PMC4321816 (Chemistry & biology, 2011).

Changes are numbered by the printed parent chain.

`[O]=[V]([OH])([OH])[OH]` [vanadate]: the “co-crystal structure, 1.8 Å (Table 1)” value in test [1] is reported as “we have determined the co-crystal structure of a covalent complex with orthovanadate”.

`O=C(O)CP(=O)(O)O` [phosphonoacetate]: in test [2], the “co-crystal structure, 2.0 Å” value is “Crystals for the T68A mutant showed robust density for PnA in the active site”. Take `CC(=O)O` [acetate]: in test [3], the “crystal structure, 2.0 Å, crystals soaked with phosphonoacetate” value is given as “electron density consistent with an acetate ion bound to the M1 metal ion”.
